According to ChEMBL document CHEMBL1201862, “PubChem BioAssay data set” (2004):
Calls of active or inactive are those of the source.

Assays:
Streptococcus = test: GAS UMAA2166 growth inhibition – luminescence, BacTiterGlo, counter-screen for streptokinase expression inhibitor project, dose response (AID 1915); format: functional, organism-based;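 further: potency for reduction of bacterial viability or growth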
[1] = system: Streptococcus sp. 'group A'; test: Streptococcus pyogenes SK(-)GAS viability under kanamycin – luminescence, BacTiterGlo, confirmation, counter-screen for streptokinase expression inhibitor project, dose response (AID 1900); format: functional, organism-based
[2] = viability of uninfected HEp-2 cells – cell-based, HTS, cytotoxicity control for RSV inhibitor project, dose response (AID 2410); format: functional; conditions: human respiratory syncytial virus
[3] = Luminescence Cell-Based Dose Retest to Confirm Inhibitors of Cancer Stem Cells. [Related pubchem assays (depositor defined):AID2717, AID2721]; format: functional; conditions: Homo sapiens
Cytochrome P450 2C19 = Cytochrome P450 2C19 (Homo sapiens, UniProt P33261); test: Cytochrome panel assay with activity outcomes. Panel member name: p450-cyp2c19 Compounds with AC50 equal or less than 10 uM are considered active; format: functional
Cytochrome P450 1A2 = target: T1, Cytochrome P450 1A2 (Homo sapiens, UniProt P05177);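 further: PubChem cytochrome P450 panel assay, CYP1A2 panel member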
T1 sequence (P05177 whole entry): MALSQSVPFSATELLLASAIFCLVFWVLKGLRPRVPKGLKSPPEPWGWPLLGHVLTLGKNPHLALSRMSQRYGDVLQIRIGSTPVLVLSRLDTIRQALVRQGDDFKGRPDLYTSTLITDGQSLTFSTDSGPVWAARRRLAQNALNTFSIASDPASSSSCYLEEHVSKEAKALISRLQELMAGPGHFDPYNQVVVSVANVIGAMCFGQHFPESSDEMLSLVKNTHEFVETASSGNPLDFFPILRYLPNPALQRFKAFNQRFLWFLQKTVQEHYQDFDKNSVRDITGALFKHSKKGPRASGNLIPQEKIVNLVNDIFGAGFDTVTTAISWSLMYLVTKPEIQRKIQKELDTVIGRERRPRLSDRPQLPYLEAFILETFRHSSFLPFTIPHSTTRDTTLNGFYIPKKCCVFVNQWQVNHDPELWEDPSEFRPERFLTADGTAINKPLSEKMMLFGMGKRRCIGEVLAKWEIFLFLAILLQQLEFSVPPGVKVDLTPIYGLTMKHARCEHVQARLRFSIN

[4] = target: T2, Rac GTPase-activating protein 1 (Homo sapiens, UniProt Q9H0H5); test: blockers of MgcRacGAP-driven Rac1 GTP hydrolysis – biochemical, ADP Hunter fluorescence, primary and confirmatory, confirmation (AID 624330); format: functional
T2 sequence (Q9H0H5 whole entry): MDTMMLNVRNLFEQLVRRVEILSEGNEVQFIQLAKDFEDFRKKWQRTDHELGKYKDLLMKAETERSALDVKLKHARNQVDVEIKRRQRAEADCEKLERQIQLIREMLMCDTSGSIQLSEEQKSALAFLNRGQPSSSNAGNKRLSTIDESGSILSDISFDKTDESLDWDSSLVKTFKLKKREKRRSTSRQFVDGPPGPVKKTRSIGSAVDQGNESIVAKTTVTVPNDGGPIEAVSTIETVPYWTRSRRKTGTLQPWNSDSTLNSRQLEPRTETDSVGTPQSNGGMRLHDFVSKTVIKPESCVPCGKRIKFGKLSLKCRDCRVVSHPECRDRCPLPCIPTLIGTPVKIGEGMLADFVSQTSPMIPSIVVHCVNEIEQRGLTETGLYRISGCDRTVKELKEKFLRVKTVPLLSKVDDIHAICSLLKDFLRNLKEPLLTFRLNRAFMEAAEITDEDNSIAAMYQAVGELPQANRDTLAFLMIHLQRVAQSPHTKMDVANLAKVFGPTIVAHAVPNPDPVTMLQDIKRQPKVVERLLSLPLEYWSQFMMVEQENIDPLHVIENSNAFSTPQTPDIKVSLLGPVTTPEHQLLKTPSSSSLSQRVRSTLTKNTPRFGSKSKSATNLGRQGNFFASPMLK

[5] = target: T3, Corticotropin-releasing factor receptor 2/Corticotropin-releasing factor-binding protein (Homo sapiens, UniProt P24387+Q13324); test: activators of CRF receptor 2 with binding protein – uHTS hits, confirmation (AID 602473); format: functional; conditions: read-out: EC50_Mean
T3 sequence (Q13324 whole entry): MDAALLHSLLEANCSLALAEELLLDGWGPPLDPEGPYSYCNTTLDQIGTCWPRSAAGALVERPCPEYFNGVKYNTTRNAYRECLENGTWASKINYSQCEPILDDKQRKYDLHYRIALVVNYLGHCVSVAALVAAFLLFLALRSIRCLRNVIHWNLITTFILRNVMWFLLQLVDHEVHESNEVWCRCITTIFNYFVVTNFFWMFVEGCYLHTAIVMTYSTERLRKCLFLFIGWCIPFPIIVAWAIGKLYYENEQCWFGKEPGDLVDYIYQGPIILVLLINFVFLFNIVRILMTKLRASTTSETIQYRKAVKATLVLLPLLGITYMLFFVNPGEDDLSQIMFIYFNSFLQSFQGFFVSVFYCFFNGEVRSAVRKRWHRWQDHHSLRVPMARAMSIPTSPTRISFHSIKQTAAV
T3 sequence (P24387 whole entry): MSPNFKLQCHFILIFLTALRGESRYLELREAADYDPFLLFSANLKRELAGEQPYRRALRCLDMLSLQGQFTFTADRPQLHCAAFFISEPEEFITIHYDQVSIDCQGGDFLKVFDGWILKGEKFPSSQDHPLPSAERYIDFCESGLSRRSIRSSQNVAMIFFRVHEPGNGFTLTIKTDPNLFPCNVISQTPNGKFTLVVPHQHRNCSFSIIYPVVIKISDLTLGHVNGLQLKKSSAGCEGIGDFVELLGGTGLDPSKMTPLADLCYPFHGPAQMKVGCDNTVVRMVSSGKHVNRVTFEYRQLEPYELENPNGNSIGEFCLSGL

[6] = Trypanosoma cruzi growth suppression in host cells – NIH3T3 host cells, beta-gal luminescence, confirmation (AID 2044); format: functional, cell-based;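 further: intracellular parasites grown in NIH/3T3 mouse fibroblasts as host cells; luminescent beta-galactosidase reporter signal from transgenic T. cruzi replicating inside host cells; inhibitors lower the luminescence signal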
[7] = NIH3T3 cell viability loss – ATP luminescence, mouse fibroblasts, counter-screen, dose response (AID 2010); format: functional, cell-based;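 further: cells exposed to compound for about 90 hours before reading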
Cytochrome P450 3A4 = Cytochrome P450 3A4 (Homo sapiens, UniProt P08684);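 further: CYP3A4 tested as one member of a cytochrome P450 panel screen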
[8] = Luminescence Cell-Based Dose Response HTS to Identify Activators of Luciferase Translation or Activity in H4 […] Cells. [Related pubchem assays: 1829 (Project Summary), 1814 (Primary HTS)]; format: functional
H4 = test: Luminescence Cell-Based Dose Response HTS to Identify Activators of 5'UTR Stem-Loop Driven Prion Protein mRNA Translation in H4 Neuroglioblastoma Cells. [Related pubchem assays: 1829 (Project Summary), 1814 (Primary HTS)]; format: functional; conditions: Homo sapiens
[9] = Luminescence Cell-Based Dose Confirmation HTS to Identify Activators of 5'UTR Stem-Loop Driven Alpha-Synuclein mRNA Translation in H4 Neuroglioblastoma Cells. [Related pubchem assays: 1829 (Project Summary), 1814 (Primary HTS)]; format: functional

Chain of Cytochrome P450 2C19 (P33261 whole entry): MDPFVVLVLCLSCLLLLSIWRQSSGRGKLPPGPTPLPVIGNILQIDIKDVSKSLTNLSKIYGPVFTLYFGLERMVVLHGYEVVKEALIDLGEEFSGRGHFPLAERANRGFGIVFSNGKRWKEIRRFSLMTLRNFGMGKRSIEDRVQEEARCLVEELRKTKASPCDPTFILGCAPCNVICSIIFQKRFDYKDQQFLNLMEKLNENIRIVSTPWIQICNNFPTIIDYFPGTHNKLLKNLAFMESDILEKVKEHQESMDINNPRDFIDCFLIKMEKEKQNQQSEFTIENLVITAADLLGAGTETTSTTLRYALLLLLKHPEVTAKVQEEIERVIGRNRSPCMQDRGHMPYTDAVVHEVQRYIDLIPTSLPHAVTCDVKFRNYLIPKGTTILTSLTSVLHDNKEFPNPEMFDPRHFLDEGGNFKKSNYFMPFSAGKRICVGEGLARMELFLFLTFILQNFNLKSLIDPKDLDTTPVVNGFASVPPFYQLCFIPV
Chain of Cytochrome P450 3A4 (P08684 whole entry): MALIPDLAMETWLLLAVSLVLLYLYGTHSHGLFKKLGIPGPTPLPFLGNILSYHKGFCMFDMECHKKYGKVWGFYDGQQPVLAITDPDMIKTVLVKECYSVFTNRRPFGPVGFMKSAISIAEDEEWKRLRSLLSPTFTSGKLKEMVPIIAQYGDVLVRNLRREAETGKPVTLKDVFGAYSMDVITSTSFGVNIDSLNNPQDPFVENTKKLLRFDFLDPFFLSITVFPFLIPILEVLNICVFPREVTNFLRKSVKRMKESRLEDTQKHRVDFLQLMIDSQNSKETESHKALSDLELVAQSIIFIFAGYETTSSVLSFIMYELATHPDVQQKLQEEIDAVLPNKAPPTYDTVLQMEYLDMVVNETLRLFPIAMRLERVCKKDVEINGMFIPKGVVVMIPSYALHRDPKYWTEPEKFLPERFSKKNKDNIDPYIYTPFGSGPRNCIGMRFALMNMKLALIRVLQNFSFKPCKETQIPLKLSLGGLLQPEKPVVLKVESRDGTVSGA

CCCn1c(=O)c(C(=O)N/N=C/c2ccc(F)cc2)c(O)c2ccccc21
EC50 (Streptococcus): 3.31 µM (active)
EC50 [1]: 1.99 µM (active)

COc1ccc(Cc2nc3ccc(C(=O)NCCc4cccc(C)n4)cc3o2)cc1
CC50 [2]: 19.7 µM (active)

C=C[C@@H]1c2cc(C)ccc2N(S(=O)(=O)c2ccc(C)cc2)[C@H](c2ccc(OC(C)=O)cc2)C1(C#N)C#N
AC50 [3]: 0.804 µM (active)

COCCn1c(=O)c(-c2cccc(C#N)c2)nc2cnc(Oc3ccc(OC)cc3)nc21
AC50 (Cytochrome P450 2C19; read-out: AC50): 39.8 µM (inconclusive)
AC50 (Cytochrome P450 1A2): 12.6 µM (inconclusive)

O=C(CN1CCN(c2ncccn2)CC1)N1CCCC1
IC50 [4]: 176 µM (active)

COc1ccc(/C=C2\CCCC3C2=NN(C(=O)c2ccco2)C3c2ccc(OC)c(OC)c2)cc1OC (centres undefined)
AC50 (Cytochrome P450 2C19; read-out: AC50): 31.6 µM (inconclusive)

Cc1cccc(N(C)Cc2nnc(-c3cccc(Br)c3)o2)c1
CC50 [2]: 33.1 µM (active)

Oc1ccc2ccccc2c1Br
IC50 [4]: 20.3 µM (active)

Cc1ccc(S(=O)(=O)N[C@H](C(=O)OCC(=O)N2N=C(c3ccc(Cl)cc3)CC2c2ccco2)C(C)C)cc1 (some centres undefined)
EC50 [5]: > 53 µM (inactive)
CC50 [2]: > 50 µM (active)

Cc1cccc(NC(=O)CSc2nnnn2C)n1
AC50 (Cytochrome P450 2C19; read-out: AC50): 39.8 µM (inconclusive)

Cc1nnc(-c2ccc(Oc3ccc(Cl)cc3)c([N+](=O)[O-])c2)o1
AC50 [3]: < 0.16 µM (active)

CC1CCN(c2nc(-c3cccnc3)nc3scc(-c4ccccc4)c23)CC1
AC50 [3]: 1.36 µM (active)

CN(C)C(=O)Oc1cc(OC(=O)N(C)C)cc([C@@H](O)CNC(C)(C)C)c1
AC50 (Cytochrome P450 2C19): inconclusive

CCOc1cc(/C=N/N2CCN(Cc3ccccc3)CC2)ccc1O
IC50 [4]: 86.7 µM (active)

C/C(=N\NC(=O)c1ccccc1C)c1ccc(NC(=O)c2cccs2)cc1
AC50 (Cytochrome P450 2C19; read-out: AC50): 31.6 µM (inconclusive)
AC50 (Cytochrome P450 1A2): 22.4 µM (inconclusive)

COc1ccc(Oc2ncc3nc(-c4ccccc4)c(=O)n(C4CC4)c3n2)cc1
AC50 (Cytochrome P450 2C19; read-out: AC50): 31.6 µM (inconclusive)

COC(=O)c1cccc(Nc2cc(C)nc(-c3ccccc3O)n2)c1
EC50 [6]: 2.74 µM (active)
EC50 [7]: 7.5 µM (active)
AC50 [3]: 1.75 µM (active)

COc1cc(/C=N/Nc2nc(C)cc(O)n2)ccc1O
IC50 [4]: 23.9 µM (active)

CCCCCn1cc[n+](C2=C([N-]S(=O)(=O)c3ccc(Br)cc3)C(=O)c3ccccc3C2=O)c1
EC50 (Streptococcus): 6.33 µM (active)
EC50 [1]: 4.17 µM (active)

O/N=C1\CCCc2ccc(Cl)cc21
CC50 [2]: 19.5 µM (active)

Cc1cnn(CCC(=O)NN=C(S)Nc2ccc(F)cc2)c1
AC50 (Cytochrome P450 3A4): 17.8 µM (inconclusive)
AC50 (Cytochrome P450 2C19; read-out: AC50): 17.8 µM (inconclusive)

C=C1CCO[C@@]2([C@H](O)[C@@](C)(O)CO)NC(=O)[C@]1(O)NC2=O
AC50 (Cytochrome P450 2C19): inconclusive

CCOc1cc(/C=C2\C(=O)N(Cc3ccco3)C(C)=C2C(=O)OC)ccc1O
IC50 [4]: 69.9 µM (active)

CCc1ccccc1OC[C@@H](O)CN[C@H]1CCCc2ccccc21
AC50 (Cytochrome P450 2C19; read-out: AC50): 2 µM (inconclusive)

CCOc1ccc(Cl)cc1CNCCNCCO.Cl
AC50 (Cytochrome P450 2C19): inconclusive

O=C(/C=C/c1ccccc1)OCCNC1=NS(=O)(=O)c2ccccc21
CC50 [2]: 36.4 µM (active)

Cc1ccc(C)c(Cc2c(C)nc3c(C(=O)NCc4ccc5c(c4)OCO5)cnn3c2C)c1
EC50 [6]: 1.61 µM (active)
EC50 [7]: > 60 µM (not active)
AC50 [3]: 4.98 µM (active)

Cc1cc(C)c2nc(N3CCCC(C(=O)N4CCN(c5ncccn5)CC4)C3)sc2c1 (centres undefined)
AC50 [3]: 5.98 µM (active)

CCOC(=O)c1ccc2[nH]c3c(c2c1)CCCC3NC=O (centres undefined)
CC50 [2]: 36 µM (active)

COc1ccc(CCNC(=O)Cn2cnc3c2c(=O)n(C)c(=O)n3C)cc1OC
AC50 (Cytochrome P450 2C19): inconclusive
AC50 (Cytochrome P450 1A2): 3.16 µM (inconclusive)

CCCCNCC(O)(c1ccc(Cl)cc1)c1ccc(Cl)cc1
CC50 [2]: 7.11 µM (active)

COC(=O)[C@H](CCSC)NC(=O)NCc1ccccc1F
AC50 (Cytochrome P450 2C19; read-out: AC50): 0.0158 µM (inconclusive)

COc1ccc(-c2cn(CCc3c[nH]c4ccccc34)nn2)cc1
AC50 [3]: 2.86 µM (active)

Cc1ccc2c(c1)/C(=N/C1CCCCC1)c1cc3ccccc3nc1-2
EC50 [8]: 37.2 µM (active)
EC50 (H4): 0.408 µM (active)
EC50 [9]: 14.9 µM (active)

Cc1ccc(C(=O)Nc2cc(C(C)C)c(O)c(C(C)C)c2)cc1
CC50 [2]: 32 µM (active)

CN(C)/N=C/C=C1\CCC/C(=C\c2ccc(F)c(F)c2)C1=O
AC50 [3]: 8.22 µM (active)

O=[N+]([O-])c1cc(-c2n(-c3ccccn3)c3ccccc3[n+]2-c2ccccn2)ccc1Cl
EC50 [8]: 14.2 µM (active)
EC50 (H4): > 120 µM (not active)
EC50 [9]: 56.9 µM (active)

O=C(c1ccco1)N1CCn2c1nc1ccccc12
EC50 [8]: 35.3 µM (active)
EC50 (H4): 6.26 µM (active)
EC50 [9]: 1.12 µM (active)

CS(=O)(=O)N1CCN(C2C3CC4CC(C3)CC2C4)CC1 (centres undefined)
IC50 [4]: 152 µM (active)

Cc1ccc(NC(=O)c2ccc(NCCCN3CCOCC3)c([N+](=O)[O-])c2)cc1Cl
CC50 [2]: 12.8 µM (active)

CCNC(=O)CSc1nnc(C2CC2)n1-c1ccccc1
AC50 (Cytochrome P450 3A4): 28.2 µM (inconclusive)
AC50 (Cytochrome P450 2C19; read-out: AC50): 22.4 µM (inconclusive)
